The nature of the data set: Accelerated stability of SAMe salts (ICH guidelines, HPLC). In kind it is physicochemical. The following applies: 40-45° C. with 70-75% Relative Humidity. On the procedure: Assessment of stability of the above SAMe salts has been done as per the ICH guidelines at 40-45° C. with 70-75% Relative Humidity and an improved HPLC method has been employed which resolves all the impurities formed on degrading SAMe (Table I). This method of HPLC analysis is the best method known so far to study stability of SAMe and has been validated as per the ICH guidelines. The details of the HPLC method followed and the accelerated stability report are as under:
Column=YMC-ODS-A, 4.6 mm×25 cm, C-18, 5 micron
Buffer=A mixture of 0.02 M citric acid & 0.01 M sodium dihydrogen orthophosphate
Mobile phase=using acetonitrile water with citric acid buffer
Detector=UV at 254 nm wavelength
Flow rate=1.5 ml per min.
Column temperature=25° C.
The percentage of SAMe after storage at the specified temperature was determined using the content of SAMe after storage and the content of SAMe before storage, i.e., initial content of SAMe in the corresponding salt using the following equation: [formula]

Here are results for one substance from US6649753B2, “Stable salts of S-adenosyl-L-methionine (SAMe) and the process for their preparation” (Orchid Chemicals & Pharmaceuticals Ltd., priority 2001, dated 2003).

Take “SAMe disulfate catechol-3,5-disulfonate or its sodium salt [Salt II]”: the “SAMe Residual Ratio” value stood at 97.5% (accelerated storage period 30 days), 95.2% (accelerated storage period 60 days) and 94.5% (accelerated storage period 90 days).
